Results from patent US20050209157A1, “Short bioactive peptides and methods for their use” (priority 2001, published 2005).
Values after ≈ are worked out from the molar mass of the structure shown. Where two headings read alike, the source gives them in different places. No end group written: not given here.

Legend:
[1] = test system: Candida glabrata ATCC15126; assay: Antimicrobial assays II, NCCLS broth microdilution MIC; format: cell-based; conditions: Table 8; in µg/mL
[2] = test system: Pseudomonas aeruginosa H187; format: cell-based; conditions: Table 8; in µg/mL
E. coli UB1005 = format: cell-based, Escherichia coli; conditions: mean of three; 16 to 20 hours at 35° C.; in µg/mL
P. aeruginosa H374 [3] = format: cell-based, Pseudomonas aeruginosa; conditions: mean of three; 16 to 20 hours at 35° C.
H1299 = assay: Anti-cancer assay, MTT, LD50; format: cell-based; conditions: 24 hours with peptide, lung large cell carcinoma
Text: (§1) Numbers are LD50 values (μg/mL).

MCF7 = assay: Anti-cancer assay, MTT, LD50; format: cell-based; conditions: MCF7 breast adenocarcinoma line, MTT, 24 hours with peptide
Text: as §1

BMKC = assay: Anti-cancer assay, MTT, LD50; format: cell-based; conditions: BMKC cloned melanoma line, 24 hours with peptide
Text: as §1

HeLaS3 = assay: Anti-cancer assay, MTT, LD50; format: cell-based; conditions: 24 hours with peptide, cervical carcinoma
Text: as §1

PC3 = assay: Anti-cancer assay, MTT, LD50; format: cell-based; conditions: 24 hours with peptide, prostate adenocarcinoma
Text: as §1

SW480 = assay: Anti-cancer assay, MTT, LD50; format: cell-based; conditions: SW480 colon adenocarcinoma line, 24 hours with peptide
Text: as §1

in vitro = conditions: human, WI38 normal lung fibroblast cells, LD50 WI38, WI38 normal lung fibroblast line, MTT, 24 hours with peptide
[4] = test system: human red blood cells (RBC); assay: in vitro; format: cell-based; conditions: hemolytic assay, concentration at 50% hemolysis, 1 hour at 37° C.
S. typhimurium 14028S = format: cell-based, Salmonella typhimurium; conditions: mean of three; 16 to 20 hours at 35° C.; in µg/mL
P. aeruginosa = format: cell-based, Pseudomonas aeruginosa; conditions: P. aeruginosa H744; MIC of nalidixic acid with peptide at ¼ MIC
Summary of the method: (§2)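 Synergy against efflux-mutant strains: two-fold dilutions of nalidixic acid or chloramphenicol tested with peptide held at ¼ of its MIC.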

P. aeruginosa H374 [5] = format: cell-based, Pseudomonas aeruginosa; conditions: for MIC Cm-comb.: MIC of chloramphenicol with peptide at ¼ MIC; for MIC Nal-comb.: MIC of nalidixic acid with peptide at ¼ MIC; for FIC Index: 0.5 or less = synergy
Summary of the method: as §2

P. aeruginosa H774 = format: cell-based, Pseudomonas aeruginosa; conditions: P. aeruginosa H744; nalidixic acid + peptide at ¼ MIC; 0.5 or less = synergy
Summary of the method: as §2

WI38 = conditions: MTT, 24 hours with peptide; for WI38 LD50: normal fibroblast line
[6] = test system: Staphylococcus aureus ATCC 6538; assay: Antimicrobial assay I, MIC by OD measurement; format: cell-based; conditions: 37° C. for 24 hours, absorbance 620 nm
[7] = test system: Pseudomonas aeruginosa ATCC 9027; assay: Antimicrobial assay I, MIC by OD measurement; format: cell-based; conditions: 37° C. for 24 hours, absorbance 620 nm
[8] = test system: yeast (Saccharomyces cerevisiae); assay: Antimicrobial assay I, yeast assay in RPMI 1640; format: cell-based; conditions: RPMI 1640 media
[9] = chloramphenicol + peptide at ¼ MIC
[10] = nalidixic acid + peptide at ¼ MIC, FIC=0.25+MIC comb/MIC alone

Compound	E. coli UB1005 MIC (E. coli UB1005)	P. aeruginosa H374 MIC (P. aeruginosa H374 [3]) [µg/mL]	H1299 LD50 (H1299)	LD50 MCF7 (MCF7)	LD50 BMKC (BMKC)	HeLaS3 LD50 (HeLaS3)	PC3 LD50 (PC3)	LD50 SW480 (SW480)	CC50 at 24 h (in vitro) [µg/mL]	LD50 [4]	S. typhimurium 14028S MIC (S. typhimurium 14028S)	MIC Nal-comb. (P. aeruginosa) [µg/mL]	MIC Cm-comb. (P. aeruginosa H374 [5]) [µg/mL]	MIC Nal-comb. (P. aeruginosa H374 [5]) [µg/mL]	FIC Index (P. aeruginosa H374 [5]; [9])	FIC Index (P. aeruginosa H374 [5]; [10])	FIC Index (P. aeruginosa H774)	WI38 LD50 (WI38)	staph6538 (MIC) [6]	paerug9027 (MIC) [7] [µg/mL]	other results
CC(C)C[C@H](NC(=O)[C@H](C)NC(=O)[C@H](CCCCN)NC(=O)[C@H](CC(C)C)NC(=O)[C@H](C)NC(=O)[C@H](CC(C)C)NC(=O)[C@H](C)NC(=O)[C@H](CC(C)C)NC(=O)[C@H](CCCCN)NC(=O)[C@H](C)NC(=O)[C@H](CC(C)C)NC(=O)[C@H](CCCCN)NC(=O)[C@H](CCCCN)NC(=O)[C@H](C)NC(=O)[C@H](CC(C)C)NC(=O)[C@H](CCCCN)NC(=O)[C@H](CCCCN)NC(=O)[C@H](CC(C)C)NC(=O)[C@H](CCCCN)NC(=O)[C@H](CCCCN)NC(=O)[C@H](C)NC(=O)[C@H](CC(C)C)NC(=O)[C@H](CCCCN)NC(=O)[C@H](CCCCN)NC(=O)[C@H](C)NC(=O)[C@@H](N)Cc1ccccc1)C(=O)N[C@@H](C)C(=O)N[C@@H](CC(C)C)C(=O)N[C@@H](CCCCN)C(=O)N[C@@H](C)C(=O)O [P100 (163)]																					MIC C. glabrata ATCC15126 [1]: >128; MIC P. aeruginosa H187 [2]: 32
LPKWKVFKKIEKVGRNIRNGIVKAGPAIAVLGEAKALG-NH2 [P306, reference compound]	4	8	120 µg/mL	50 µg/mL	170 µg/mL	250 µg/mL	370 µg/mL	240 µg/mL	320	> (> indicates greater than 1000)	4	312	8	5000	0.75	1.25	0.75	320 µg/mL			
FAKKLAKLAKKLAKAL-NH2 [P109 (73)]																					MIC C. glabrata ATCC15126 [1]: 128; MIC P. aeruginosa H187 [2]: 64
FAKKLAKLAKKALAL-NH2 [P39, FAKKLAKLAKKALAL-NH2]	4	16	420 µg/mL	130 µg/mL	510 µg/mL	620 µg/mL	310 µg/mL	435 µg/mL	300	> (> indicates greater than 1000)	16	624	8	1250	0.75	0.5	1.25	300 µg/mL	100 µg/mL	25	yeast (MIC or MFC) [8]: 100 µg/mL
FAKKLAKKLKKLAKKLAKLAKKL-NH2 [P307, reference compound]			160 µg/mL	38 µg/mL	83 µg/mL	100 µg/mL	66 µg/mL	73 µg/mL	75	> (> indicates greater than 1000)		156	2	625	0.375	0.375	0.5	75 µg/mL			
FAKKLAKLAKKLAKAL-NH2 [P109]	16	8	> (> indicates greater than 1000)	> (> indicates greater than 1000)	> (> indicates greater than 1000)	> (> indicates greater than 1000)	> (> indicates greater than 1000)	> (> indicates greater than 1000)		> (> indicates greater than 1000)	32	624	16	2500	1.25	0.75	1.25	> (> indicates greater than 1000)	> (> indicates greater than 200 μg/mL)	200	yeast (MIC or MFC) [8]: 200 µg/mL; LD50 WI38 (WI38; WI38 normal lung fibroblast line): > (> indicates greater than 1000)
FAKKLLAKALKL-NH2 [P110]	16	8	95 µg/mL	180 µg/mL	400 µg/mL	540 µg/mL	> (> indicates greater than 1000)	325 µg/mL	45	> (> indicates greater than 1000)	32	624	16	2500	1.25	0.75	1.25	45 µg/mL	> (> indicates greater than 200 μg/mL)	200	yeast (MIC or MFC) [8]: 200 µg/mL
CC(C)C[C@H](NC(=O)[C@H](C)NC(=O)[C@H](CCCCN)NC(=O)[C@H](CC(C)C)NC(=O)[C@H](C)NC(=O)[C@H](CC(C)C)NC(=O)[C@H](C)NC(=O)[C@H](CC(C)C)NC(=O)[C@H](CCCCN)NC(=O)[C@H](C)NC(=O)[C@H](CC(C)C)NC(=O)[C@H](CCCCN)NC(=O)[C@H](CCCCN)NC(=O)[C@H](C)NC(=O)[C@H](CC(C)C)NC(=O)[C@H](CCCCN)NC(=O)[C@H](CCCCN)NC(=O)[C@H](CC(C)C)NC(=O)[C@H](CCCCN)NC(=O)[C@H](CCCCN)NC(=O)[C@H](C)NC(=O)[C@H](CC(C)C)NC(=O)[C@H](CCCCN)NC(=O)[C@H](CCCCN)NC(=O)[C@H](C)NC(=O)[C@@H](N)Cc1ccccc1)C(=O)N[C@@H](C)C(=O)N[C@@H](CC(C)C)C(=O)N[C@@H](CCCCN)C(=O)N[C@@H](C)C(=O)O [P100, reference compound]	0.5	8		175 µg/mL	120 µg/mL			82 µg/mL	95 (≈ 29.4 µM)	> (> indicates greater than 1000)	4	624	16	2500	1.25	0.75	1.25				
